Experimental findings from patent publication US7598046B2 (priority 2003, dated 2009) are described below.

Read-outs that look alike come from different tables or passages of the source.

The test system of this assay is PrP^Sc (conversion of PrP^C into PrP^Sc). It is filed as biochemical, hamster. The settings on record: for prion replication in vitro (PMCA signal): 30 min at 4° C., without cyclodextrin, 3200-fold and 12800-fold dilutions of scrapie brain homogenate.

Regarding methyl-β-cyclodextrin, the “prion replication (PrP^Sc signal after PMCA): complete inhibition observed or not” value (5 mM methyl-β-cyclodextrin, normal brain homogenate treated 30 min, 10 cycles of PMCA, Western blot after PK) was “not”. The “prion replication (PrP^Sc signal after PMCA)” value reads like this: (10 mM methyl-β-cyclodextrin, normal brain homogenate treated 30 min, 10 cycles of PMCA, Western blot after PK) “complete inhibition”; (20 mM methyl-β-cyclodextrin, normal brain homogenate treated 30 min, 10 cycles of PMCA, Western blot after PK) “complete inhibition”.

Turning to Apolipoprotein B, for the setting “8 and 16 μg hApo B”, the “prion replication in vitro (PMCA signal)” value is listed as “increase”.

Take Apolipoprotein E: the “prion replication in vitro (PMCA signal)” value (1 and 10 μg hApo E) was “increase”.
